Data from article PMC6540907, “The nuclear export inhibitor aminoratjadone is a potent effector in extracellular-targeted drug conjugates” (Chemical Science, 2019).
Like-named read-outs stand apart in the source and are kept apart here. Each block holds one compound with its values, some of them ahead of it. Starred links: 1 amine or outer side, 2 acyl side, 3 side chain; linkers in the order of their positions; H or OH if unused. Non-standard residues stand in square brackets, D forms with d. Residues, ends and D or L forms follow the SMILES beside them. Groups on a side chain read outwards from the residue. *: point of attachment. X2 = C/C=C/[C@@H]1O[C@H]([C@@H](/C=C/C=C(\C)C[C@@H](C)/C=C(C)\C=C\[C@H]2CC=CC(=O)O2)N*)C[C@@H](O)[C@@H]1C; X1 = O=C([C@@H](CCCn1nnc2c1CCC1C(CC2)C1COC(=O)[*:3])N[*:1])[*:2]; PABC = O=C(OCc1ccc(N[*:1])cc1)[*:2]; Cit = NC(=O)NCCC[C@H](N)C(=O)O; pGlu = O=C1CC[C@@H](C(=O)O)N1; azaGly = NNC(=O)O

Legend:
Type in all cases: cell-based, human
A-549 = test: cells
Protocol: (§1) Biological evaluation of the compounds […]
(§2) serial dilutions of the test compound were given to 120 µL of suspended cells (50.000/mL) in wells of 96-well plates. After 5 days of incubation growth inhibition (IC50) was determined using an MTT assay.9
(§3) Table S1:Medium conditions for different cell types.
(§4) Cell type Medium Additives
(§5) L-929 (DSMZ ACC 2) DME medium (high glucose) (Gibco) 10% fetal calf serum (Gibco) SKOV-3 DSMZ ATCC HTB Mc Coys-Medium (Gibco) 10% fetal calf serum (Gibco) […]
(§6) A549 (DSMZ ACC 107) DME medium (high glucose) (Gibco) 10% fetal calf serum (Gibco)

KB-3.1 = test: cells
Protocol: as §1, §2, §3, §4, §5, §6

MCF-7 = test: cells
Protocol: as §1, §2, §3, §4, §5, §6

SK-OV-3 = test: cells
Protocol: as §1, §2, §3, §4, §5, §6

KB-3.1 cancer cells = test: Cell proliferation assay under folate free conditions (MTT); conditions: KB-3.1, folate receptor-positive, read-out: Antiproliferative activity IC50 of folate-ratjadone conjugates
Protocol: Cell proliferation assay under folate free conditions
KB 3.1 (DSMZ ACC 158) cells were cultivated at 37 °C and 10 % CO2 in RMPI-medium without folic acid (Gibco) with 10% fetal calf serum (Gibco). 120 µL of suspended cells (100.000/mL) were seeded in wells of 96-well plates and after 24 h at 37 °C and 10 % CO2 the medium was removed, the cells were washed with PBS and RPMI-medium without folic acid (Gibco) + 10% dialyzed fetal calf serum (Sigma) were added to the cells, before after additional 24 h at 37°C and 10 % CO2 60 µL of serial dilutions of the test compound were given to cells. After 1, 2 and 5 days of incubation growth inhibition (IC50) was determined using an […]

[1] = A-549 human lung carcinoma, read-out: Antiproliferative activity IC50
[2] = Homo sapiens, A549, read-out: Antiproliferative activity IC50, A-549 human lung carcinoma
[3] = Homo sapiens, KB 3-1, read-out: Antiproliferative activity IC50, KB-3.1 human cervix carcinoma
[4] = Homo sapiens, MCF7, read-out: Antiproliferative activity IC50, MCF-7 human breast carcinoma
[5] = Homo sapiens, SK-OV-3, read-out: Antiproliferative activity IC50

Compound: C#CCCOC(=O)N[C@@H](C(=O)NC(CCCNC(N)=O)C(=O)Nc1ccc(COC(=O)N[C@H](/C=C/C=C(\C)C[C@@H](C)/C=C(C)\C=C\[C@H]2CC=CC(=O)O2)[C@@H]2C[C@@H](O)[C@H](C)[C@H](/C=C/C)O2)cc1)C(C)C (some centres unmarked) [Compound 26]
IC50 (A-549; [1]): 25.1 nM
IC50 (A-549; Homo sapiens, A549, A-549 human lung carcinoma, read-out: Antiproliferative activity IC50): 25.1 nM
IC50 (KB-3.1; KB 3-1, KB-3.1 human cervix carcinoma, read-out: Antiproliferative activity IC50): 9.2 nM
IC50 (MCF-7; Homo sapiens, MCF7, MCF-7 human breast carcinoma, read-out: Antiproliferative activity IC50): 12.5 nM
IC50 (MCF-7; MCF-7 human breast carcinoma, read-out: Antiproliferative activity IC50): 12.5 nM
IC50 (SK-OV-3; Homo sapiens, SK-OV-3, SK-OV-3 human ovarian carcinoma, read-out: Antiproliferative activity IC50): 13.6 nM
IC50 (SK-OV-3; SK-OV-3 human ovarian carcinoma, read-out: Antiproliferative activity IC50): 13.6 nM

Compound: C/C=C/[C@@H]1O[C@H]([C@@H](/C=C/C=C(\C)C[C@@H](C)/C=C(C)\C=C\[C@H]2CC=CC(=O)O2)NC(=O)OCCc2cn(CCC[C@H](NC(=O)[C@H](Cc3ccc(O)cc3)NC(=O)[C@H](CO)NC(=O)[C@H](Cc3c[nH]c4ccccc34)NC(=O)[C@H](Cc3c[nH]cn3)NC(=O)[C@@H]3CCC(=O)N3)C(=O)N[C@@H](CC(C)C)C(=O)N[C@@H](CCCNC(=N)N)C(=O)N3CCC[C@H]3C(=O)NCC(N)=O)nn2)C[C@@H](O)[C@@H]1C [L-Orn-LHRH-16R-aminoratjadone]
IC50 (A-549; [1]): 1600 nM

Compound: C/C=C/[C@@H]1O[C@H]([C@@H](/C=C/C=C(\C)C[C@@H](C)/C=C(C)\C=C\[C@H]2CC=CC(=O)O2)NC(=O)OCCc2cn(CCC[C@H](NC(=O)CC[C@H](NC(=O)CC[C@H](NC(=O)c3ccc(NCc4cnc5nc(N)[nH]c(=O)c5n4)cc3)C(=O)O)C(=O)O)C(=O)O)nn2)C[C@@H](O)[C@@H]1C [FA-7-L-16R-aminoratjadone]
IC50 (KB-3.1 cancer cells; listed as FA-7-L-16R-Aminoratjadone): 190 nM
IC50 (KB-3.1 cancer cells): 190 nM

Compound: C/C=C/[C@@H]1O[C@H]([C@@H](/C=C/C=C(\C)C[C@@H](C)/C=C(C)\C=C\[C@H]2CC=CC(=O)O2)NC(=O)OCc2ccc(NC(=O)[C@H](CCCNC(N)=O)NC(=O)[C@@H](NC(=O)OCCc3cn(CCC[C@H](NC(=O)[C@H](Cc4ccc(O)cc4)NC(=O)[C@H](CO)NC(=O)[C@H](Cc4c[nH]c5ccccc45)NC(=O)[C@H](Cc4c[nH]cn4)NC(=O)[C@@H]4CCC(=O)N4)C(=O)N[C@@H](CC(C)C)C(=O)N[C@@H](CCCNC(=N)N)C(=O)N4CCC[C@H]4C(=O)NCC(N)=O)nn3)C(C)C)cc2)C[C@@H](O)[C@@H]1C
IC50 (A-549; [1]): 1200 nM

Compound: C/C=C/[C@@H]1O[C@H]([C@@H](/C=C/C=C(\C)C[C@@H](C)/C=C(C)\C=C\[C@H]2CC=CC(=O)O2)NC(=O)CCSSC[C@H](NC(=O)CC[C@H](NC(=O)c2ccc(NCc3cnc4nc(N)nc(O)c4n3)cc2)C(=O)O)C(=O)O)C[C@@H](O)[C@@H]1C [FA-SS-16R-aminoratjadone]
IC50 (KB-3.1 cancer cells; listed as FA-SS-16R-Aminoratjadone): 295 nM
IC50 (KB-3.1 cancer cells): 295 nM

Compound: C/C=C/[C@@H]1O[C@H]([C@@H](/C=C/C=C(\C)C[C@@H](C)/C=C(C)\C=C\[C@H]2CC=CC(=O)O2)NC(=O)OCc2ccc(NC(=O)[C@H](CCCNC(N)=O)NC(=O)[C@@H](NC(=O)OC[C@@H]3[C@@H]4CCc5nnn(CCC[C@H](NC(=O)CC[C@H](NC(=O)c6ccc(NCc7cnc8nc(N)nc(O)c8n7)cc6)C(=O)O)C(=O)N[C@H](CCCCN)C(=O)O)c5CC[C@@H]43)C(C)C)cc2)C[C@@H](O)[C@@H]1C [FA-9-Val-Cit-pABA-16R-aminoratjadone]
IC50 (KB-3.1 cancer cells): 50.9 nM

Compound: C/C=C/[C@@H]1O[C@H]([C@@H](/C=C/C=C(\C)C[C@@H](C)/C=C(C)\C=C\[C@H]2CC=CC(=O)O2)NC(=O)OCc2ccc(NC(=O)[C@H](CCCNC(N)=O)NC(=O)[C@@H](NC(=O)OC[C@@H]3[C@@H]4CCc5nnn(CCC[C@H](NC(=O)CC[C@H](NC(=O)CC[C@H](NC(=O)c6ccc(NCc7cnc8nc(N)nc(O)c8n7)cc6)C(=O)O)C(=O)O)C(=O)O)c5CC[C@@H]43)C(C)C)cc2)C[C@@H](O)[C@@H]1C [FA-7-Val-Cit-pABA-16R-aminoratjadone]
IC50 (KB-3.1 cancer cells): 34.3 nM

Compound: C/C=C/[C@@H]1O[C@H]([C@@H](/C=C/C=C(\C)C[C@@H](C)/C=C(C)\C=C\[C@H]2CC=CC(=O)O2)NC(=O)OCc2ccc(NC(=O)[C@H](CCCNC(N)=O)NC(=O)[C@@H](NC(=O)OC[C@@H]3[C@@H]4CCc5nnn(-c6ccc(C(=O)NCCCC[C@H](NC(=O)CC[C@H](NC(=O)c7ccc(NCc8cnc9nc(N)nc(O)c9n8)cc7)C(=O)O)C(=O)N[C@H](CCCCN)C(=O)O)cc6)c5CC[C@@H]43)C(C)C)cc2)C[C@@H](O)[C@@H]1C [FA-8-Val-Cit-pABA-16R-aminoratjadone]
IC50 (KB-3.1 cancer cells): 39.9 nM

Compound: C/C=C/[C@@H]1O[C@H]([C@@H](/C=C/C=C(\C)C[C@@H](C)/C=C(C)\C=C\[C@H]2CC=CC(=O)O2)NC(=O)OCc2ccc(NC(=O)[C@H](CCCNC(N)=O)NC(=O)[C@@H](NC(=O)OCC3C4CCc5nnn(CCC[C@H](NC(=O)[C@@H](CC(=O)O)NC(=O)[C@@H](CC(=O)O)NC(=O)[C@@H](CC(=O)O)NC(=O)CC[C@H](NC(=O)c6ccc(NCc7cnc8nc(N)nc(O)c8n7)cc6)C(=O)O)C(=O)N[C@H](CC(=O)O)C(=O)N[C@H](CC(=O)O)C(=O)N[C@H](CCCCN)C(=O)O)c5CCC43)C(C)C)cc2)C[C@@H](O)[C@@H]1C (stereo partly drawn) [FA-10-Val-Cit-pABA-16R-aminoratjadone]
IC50 (KB-3.1 cancer cells): 35.3 nM

Compound: C#CCCOC(=O)NC1C[C@@H]([C@H](O)/C=C/C=C(\C)C[C@@H](C)/C=C(C)\C=C\[C@H]2CC=CC(=O)O2)O[C@@H](/C=C/C)[C@H]1C (some centres unmarked) [Compound 34]
IC50 (A-549; [2]): 5.22 nM
IC50 (KB-3.1; [3]): 7.23 nM
IC50 (MCF-7; [4]): 3.1 nM
IC50 (SK-OV-3; [5]): 4.22 nM

Compound: C/C=C/[C@@H]1O[C@H]([C@@H](/C=C/C=C(\C)C[C@@H](C)/C=C(C)\C=C\[C@H]2CC=CC(=O)O2)NC(=O)OCc2ccc(NC(=O)[C@H](CCCNC(N)=O)NC(=O)[C@@H](NC(=O)OC[C@@H]3[C@@H]4CCc5nnn(-c6ccc(C(=O)NCCCC[C@H](NC(=O)CC[C@H](NC(=O)CC[C@H](NC(=O)c7ccc(NCc8cnc9nc(N)nc(O)c9n8)cc7)C(=O)O)C(=O)O)C(=O)O)cc6)c5CC[C@@H]43)C(C)C)cc2)C[C@@H](O)[C@@H]1C [FA-6-Val-Cit-pABA-16R-aminoratjadone]
IC50 (KB-3.1 cancer cells; listed as FA-6-Val-Cit-pABA-16R-Aminoratjadone): 223 nM
IC50 (KB-3.1 cancer cells): 223 nM

Compound: C/C=C/[C@@H]1O[C@H]([C@@H](/C=C/C=C(\C)C[C@@H](C)/C=C(C)\C=C\[C@H]2CC=CC(=O)O2)NC(=O)OCCc2cn(-c3ccc(C(=O)NCCCC[C@H](NC(=O)CC[C@H](NC(=O)c4ccc(NCc5cnc6nc(N)[nH]c(=O)c6n5)cc4)C(=O)O)C(=O)N[C@@H](CCCCN)C(=O)O)cc3)nn2)C[C@@H](O)[C@@H]1C [FA-8-L-16R-aminoratjadone]
IC50 (KB-3.1 cancer cells; listed as FA-8-L-16R-Aminoratjadone): 129 nM
IC50 (KB-3.1 cancer cells): 129 nM

IC50 (A-549): 318 nM
IC50 (KB-3.1): 1110 nM
IC50 (MCF-7): 47.4 nM
IC50 (SK-OV-3): 190 nM
Compound: CC(C)C[C@H](NC(=O)[C@@H](CCCN=[N+]=[N-])NC(=O)[C@H](Cc1ccc(O)cc1)NC(=O)[C@H](CO)NC(=O)[C@H](Cc1c[nH]c2ccccc12)NC(=O)[C@H](Cc1c[nH]cn1)NC(=O)[C@@H]1CCC(=O)N1)C(=O)N[C@@H](CCCNC(=N)N)C(=O)N1CCC[C@H]1C(=O)NCC(N)=O [D-Orn-N3-LHRH]

Compound: C/C=C/[C@@H]1O[C@H]([C@@H](/C=C/C=C(\C)C[C@@H](C)/C=C(C)\C=C\[C@H]2CC=CC(=O)O2)NC(=O)OCc2ccc(NC(=O)[C@H](CCCNC(N)=O)NC(=O)[C@@H](NC(=O)OCC3C4CCc5nnn(CCC[C@@H](NC(=O)[C@H](Cc6ccc(O)cc6)NC(=O)[C@H](CO)NC(=O)[C@H](Cc6c[nH]c7ccccc67)NC(=O)[C@H](Cc6c[nH]cn6)NC(=O)[C@@H]6CCC(=O)N6)C(=O)N[C@@H](CC(C)C)C(=O)N[C@@H](CCCNC(=N)N)C(=O)N6CCC[C@H]6C(=O)NNC(N)=O)c5CCC43)C(C)C)cc2)C[C@@H](O)[C@@H]1C (stereo partly drawn) ([pGlu]HWSY[X1]([Val-Cit-PABC-X2])LRP[azaGly]-NH2)
IC50 (A-549; [1]): 12.8 nM

Compound: C/C=C/[C@@H]1O[C@H]([C@@H](/C=C/C=C(\C)C[C@@H](C)/C=C(C)\C=C\[C@H]2CC=CC(=O)O2)NC(=O)OCc2ccc(NC(=O)[C@H](CCCNC(N)=O)NC(=O)[C@@H](NC(=O)OCC3C4CCc5nnn(CCC[C@@H](NC(=O)[C@H](Cc6ccc(O)cc6)NC(=O)[C@H](CO)NC(=O)[C@H](Cc6c[nH]c7ccccc67)NC(=O)[C@H](Cc6c[nH]cn6)NC(=O)[C@@H]6CCC(=O)N6)C(=O)N[C@@H](CC(C)C)C(=O)N[C@@H](CCCNC(=N)N)C(=O)N6CCC[C@H]6C(=O)NCC(N)=O)c5CCC43)C(C)C)cc2)C[C@@H](O)[C@@H]1C (some centres unmarked)
IC50 (A-549; [1]): 23 nM

Compound: C#CCCC(=O)NCCSSCCC(=O)N[C@H](/C=C/C=C(\C)C[C@@H](C)/C=C(C)\C=C\[C@H]1CC=CC(=O)O1)[C@@H]1C[C@@H](O)[C@H](C)[C@H](/C=C/C)O1 [Compound 29, HCC(CH2)2(CO)-NH-(CH2)2SS(CH2)2(CO)-16R-Aminoratjadone]
IC50 (A-549; [2]): 0.86 nM
IC50 (KB-3.1; [3]): 1.86 nM
IC50 (MCF-7; [4]): 0.17 nM
IC50 (SK-OV-3; [5]): 1.09 nM
